Data reported in US20030134901A1, “Lipoxin compounds and their use in treating cell proliferative disorders” (priority 1993, published 2003).

Tested on: PLD activity in human PMN
Experiment: PLD activity (PEt formation) in PMN
Type: cell-based
Details: biphasic concentration dependence
Protocol: PMN, platelet and RBC isolation from peripheral blood. Human PMN were obtained by the modified Böyum method (Böyum, A. (1968) Scan. J. Clin. Lab. Invest. 21:77) from fresh heparinized blood after venipuncture of healthy normal volunteers. Suspensions in PBS were monitored for cell number and viability by their ability to exclude trypan blue both exceeding 98%. Red blood cells were obtained from 10 ml of heparinized blood after three centrifugations in PBS (2,500 rpm, 10 min at 21° C.). Blood drawn in acidic citrate dextrose (9:1, v/v) was used to isolate platelets as previously described (Serhan, C. N. and Sheppard, K.-A. (1990) J. Clin. Invest. 85:772). PLD activity. Human PMN and HL-60 cells (50×10^6 cells/ml) prepared as above were incubated with ^3H-myristic acid or ^3H-palmitic acid (8 μCi/50×10^6 cells) for 40-60 min at 37° C. in PBS. […] Incubations were carried out at 37° C. (10 ×10^6 cells/ml PBS). […] M. et al. (1989) J. Biol. Chem. 264:17069. At indicated times, incubations were stopped by adding 3.5 ml of ice cold CHCl3/MeOH (2/5, v/v) containing 1-^14C-arachidonic acid (5,000 cpm) used here as internal standard to quantitate extraction recoveries. Samples were extracted using a modified Bligh and Dyer extraction as in (Serhan, C. N. and Sheppard, K. -A. (1990) J. Clin. Invest. 85:772). Organic phases, concentrated in 50 μL of CHCl3/MeOH (8/2, v/v), were spotted onto linear […] TLC plates developed with the organic phase of ethyl acetate[…][…] (110/50/20/100, v/v/v/v) for 50 min ([…]. et al.(1989) J. Biol. Chem. 264:17069). […] Regions corresponding to PA, PEt, and internal standards were scraped and quantified by liquid scintillation counting. […] In these experiments, PA was resolved using ethyl acetate[…][…]) as solvent system ([…]. et al. (1989) Anal. […] Impact of IAP and staurosporine on LXA4-induced PLD activity. PLD activity assays, performed as described (vide supra), were preceded by cell exposure to either IAP or staurosporine. […]

`CCCCC[C@H](O)/C=C/C=C\C=C\C=C\[C@@H](O)[C@@H](O)CCCC(=O)O` [LXA4, (5S, 6R, 15S)-trihydroxy-7E, 9E, 11Z, 13E-eicosatetraenoic acid] was tested. Which “concentration of second peak of activity, PEt formation” value did it give?
The value was 10^−7 M.
